Source: patent US20070060605A1, “Compositions and methods for inhibiting platelet activation and thrombosis” (priority 2001, published 2007)
Read-outs that look alike come from different tables or passages of the source.

Legend:
[1] = test system: platelet accumulation into thrombus; type: in vivo
Excerpt: A preferred animal model involves intravital microscopy of laser-induced thrombi. The method is described by Rosen et al., 2001, Am J Pathol 158, 1613-1622, which is incorporated herein by reference. Minor variations of that method were employed as described below.
Experimental mice are pre-anesthetized and surgically prepared. A tracheal tube is placed to facilitate breathing and the jugular vein is canulated to allow for maintenance of anesthetic and introduction of compound. The cremaster muscle is then exteriorized. The muscle is affixed over a glass slide, allowing illumination from below. A steady drip of a sodium-bicarbonate buffered salt solution is maintained throughout the experiment to keep the exposed muscle moist. Blood flow in the muscle is visualized using a 40× water immersion lens and epi-illuminated with an appropriately filtered light source. Alexa 488-labeled anti-mouse CD41 antibody is injected through the jugular canulus to label platelets in vivo.
Thrombosis is initiated by damaging the vessel wall (of a 30 μm vessel) with a laser pulse from a MicroPoint LASER attached to the microscope. A LASER pulse is delivered, causing damage in an area smaller than 1 μm. The recruitment of platelets to the thrombus is then monitored by the accumulation of (activated) Alexa 488-labeled platelets at the ablation site using fluorescence microscopy, and the process is recorded digitally. The method thus permits in vivo analysis of platelet activation as measured by platelet aggregation and thrombosis.
The degree of embolization in an untreated mouse can be quantified using software for image analysis, e.g., BioQuant True Color Windows (Biometrics, Nashville, Tenn.), as described in Rosen et al., 2001, supra. The software package permits the determination of the “integrated optical density” or IOD of the thrombus.
Using quantitative intravital fluorescence videomicroscopy with high temporal resolution (111 images/second), the effect of PDE3 inhibition on the platelet recruitment into thrombi was directly observed over time. Platelets were fluorescently labeled by infusing rat-anti-mouse CD41 and Alexa 488-anti-rat IgG through a cannulated jugular vein. The cremaster microvasculature was exposed and mapped and suitable arteriole segments were selected for laser-induced injury. A series of control injuries were generated prior to infusion of the inhibitory compound. The power and the number of laser pulses required to generate each thrombus was recorded. Platelet accumulation to the thrombi following laser ablation was recorded using digital videomicroscopy. The thrombus total fluorescence in each frame of the videos was analyzed using Slidebook software for digital videomicroscopy. The pyridazinone compound was then infused. Following a 15 minute incubation, a series of experimental injuries were generated 250 μm proximal, with relationship to blood flow, of the first injury and the resultant thrombi were recorded. The power and the number of pulses required to induce the control thrombus was used to induce the experimental thrombus. The control and experimental thrombi constituting a pair were compared for statistical analysis. The total fluorescence intensity of the thrombi before and after the infusion of pyridazinone compound was recorded.
Images from a representative experiment of the recruitment of fluorescently-labeled […] platelets into a growing thrombus over time is shown in FIG. 9A.

[2] = test system: platelets; experiment: Platelet aggregation (aggregometer); type: cell-based, human; conditions: for IC50: Homo sapiens, Platelet
Experimental: Platelet aggregation profiling is a standard methodology, generally performed with an instrument adapted for that express purpose, for example, a Platelet Aggregation Profiler (BioData, Horsham, Pa.). The assays can generally be performed according to the instructions of the manufacturer. As exemplary conditions, 400 μl of PRP are incubated with inhibitor for 15 minutes at room temperature. The sample is then incubated for 3 minutes at 37° C. in the Platelet Aggregation Profiler. The instrument is calibrated with platelet poor plasma serving as a blank. A baseline tracing is established by monitoring the light transmittance of PRP being stirred at 1200 rpm. Aggregation is initiated by the addition of SFLLR (200 μM) and the percent of platelet aggregation is measured by the change in light transmittance for 6 minutes following addition of SFLLR.

CC1CC(=O)NN=C1c1ccc(N)c([N+](=O)[O-])c1 (centres unmarked) [6-(4-Amino-3-nitro-phenyl)-5-methyl-4,5-dihydro-2H-pyridazin-3-one]
Inhibition of maximal rate of platelet recruitment ([1]; 0.3 mg/kg): 37%
Median Stabilized/Maximum platelet accumulation ([1]; 0.3 mg/kg): 36%
Inhibition of maximum platelet accumulation ([1]; 0.6 mg/kg): 61%
Median Stabilized/Maximum platelet accumulation ([1]; 0.6 mg/kg): 41%
Stabilized platelet accumulation ([1]; 0.6 mg/kg (P<0.05) and 1.2 mg/kg (P<0.01)): dose-dependent inhibition
Maximum platelet accumulation compared to absence of compound ([1]; 0.6 mg/kg and 1.2 mg/kg (P<0.05)): statistically significant decrease
Inhibition of stabilized platelet accumulation ([1]; 0.6 mg/kg, 300 seconds after laser injury): 54%
Inhibition of maximal rate of platelet recruitment ([1]; 1.2 mg/kg): 56%
Inhibition of maximum platelet accumulation ([1]; 1.2 mg/kg): 56%
Median Stabilized/Maximum platelet accumulation ([1]; 1.2 mg/kg): 33%
Inhibition of stabilized platelet accumulation ([1]; 1.2 mg/kg, 300 seconds after laser injury): 72%
Median total thromboembolization, % of the maximum platelet accumulation of control thrombi ([1]; 1.2 mg/kg, p<0.04): 1.0%
Thromboembolization ([1]; after infusion of 1.2 mg/kg): significantly reduced
Reduction of embolization ([1]; after injection, laser-induced thrombus): greater than 80%
Inhibition of thrombus formation ([1]; laser-induced thrombosis, P<0.01): 72%
Thromboembolization ([1]; same mouse model, dose not stated): inhibited
SFLLR-induced platelet aggregation ([2]; agonist SFLLR): potent inhibitor

CCCCCn1c2c(c(=N)c3ccccc31)CCC2 [JF081204{5C}]
Time for thrombus to achieve 50% maximum platelet accumulation / onset of platelet accumulation ([1]; 1 mg/kg (P<0.001), 3 mg/kg (P<0.05), 6 mg/kg (P<0.001)): statistically significant delay
Platelet accumulation over stages of thrombus formation ([1]; 1 mg/kg, 3 mg/kg, and 6 mg/kg): inhibited at all stages
Median of maximum platelet accumulation compared to absence of compound ([1]; 3 mg/kg (P<0.002) and 6 mg/kg (P<0.02)): statistically significant decrease
Median stabilized platelet accumulation ([1]; 3 mg/kg (P<0.01) and 6 mg/kg (P<0.001)): dose-dependent inhibition
Inhibition of maximum platelet accumulation ([1]; dose-dependent, 1-6 mg/kg): up to 80%
Inhibition of stabilized platelet accumulation ([1]; dose-dependent, 5 minutes following laser injury): up to 75%
IC50 ([2]; agonist U-46619, read-out: IC50 Platelet Aggregation Induced by U-46619): 400 µM
IC50 ([2]; agonist Collagen, read-out: IC50 Platelet Aggregation Induced by Collagen): > 200 µM
IC50 ([2]; agonist Epinephrine, read-out: IC50 Platelet Aggregation Induced by Epinephrine): 5 µM
IC50 ([2]; agonist SFLLRN, read-out: IC50 Platelet Aggregation Induced by SFLLRN): 2 µM
IC50 ([2]; agonists SFLLRN, epinephrine, read-out: IC50 SFLLRN- and epinephrine-induced platelet aggregation): < 5 µM
Inhibition of U46619- and collagen-induced platelet aggregation ([2]; agonists U46619, collagen): not effective
